Measured values: US20260207626A1, “SYNTHETIC TRITERPENOIDS AND COMPOSITIONS THEREOF IN WEIGHT MANAGEMENT, SKELETAL MUSCLE FUNCTION, AND APPETITE SUPPRESSION” (The Board of Regents of the University of Texas System, priority 2022, published 2026)
Several values for one entry are separate records, joined by “and”; a condition that tells them apart may be missing. Identical values can stand only once.

Tests used:
[1] = system: N171-82Q mice; conditions: cited from earlier work
[2] = system: transforming growth factor-β (TGF-β)/Smad signaling; conditions: Suh et al., 2003, Minns et al., 2004, Mix et al.; cited from earlier work
[3] = system: heme-oxygenase-1 and Nrf2/ARE signaling; conditions: Liby et al., 2005; cited from earlier work
[4] = Shin et al.; oral gavage 30 μmol/kg three times a week, HFD 82 days; interpretation questioned by the applicant; cited from earlier work
[5] = system: MCP-1; experiment: LPS-induced MCP-1 ELISA in RAW264.7 macrophages (CDDO-EA batches); type: cell-based, mouse; conditions: for MCP-1 production: LPS-induced, macrophages in cell culture; for MCP-1 level (ELISA), average: Table 4 (two values); for fold difference in the decrease of MCP-1 production: versus LPS alone
Protocol: Macrophages were pre-treated with 500 nM CDDO-EA #1 or 500 nM CDDO-EA #2, for 1 hour. The microphages were then stimulated with 100 ng/ml of lipopolysaccharide (LPS) for 6 hr. Supernatants were collected from each culture. An enzyme linked immunoassay (ELISA) was performed to detect levels of the pro-inflammatory protein, monocyte chemotactic protein-1 (MCP-1). The macrophages were also treated with LPS alone or with CDDO-EA alone. A control (no treatment) group was also included in the study.
The second batch of CDDO-EA was tested for its biological property of anti-inflammatory activity. As with the first batch of CDDO-EA, this was tested by using the mouse macrophage cell line RAW264.7. RAW264.7 macrophages were pre-treated with 500 nM CDDO-EA for 1 hour then stimulated with 100 ng/ml of lipopolysaccharide (LPS) for 6 hr. Supernatants were collected, and an enzyme linked immunoassay (ELISA) was performed to detect the pro-inflammatory protein, monocyte chemotactic protein-1 (MCP-1). The macrophages were also treated with LPS alone or with CDDO-EA alone. A control (no treatment) group was also included in the study. […] This suppression of MCP-1 production by the second batch CDDO-EA is similar to that observed for the first batch of CDDO-EA. (See FIG. 21).

[6] = system: IκB-α; conditions: Saha et al.; liver homogenates, HFD mice; cited from earlier work
[7] = system: AMPK; conditions: Saha et al.; cited from earlier work
[8] = system: GLUT4; experiment: Colorimetric assay of cell surface GLUT4 in L6GLUT4myc myotubes (preliminary data); type: cell-based, rat; conditions: FIG. 30
Protocol: Is CDDO-EA-mediated GLUT4 translocation dependent on AMPK activation? The catalytic subunit alpha-1 (α1) of AMPK will be KD by siRNA. Cells will be treated with CDDO-EA (500 nM, 1 hour), insulin ([…] for 15 min), or insulin and CDDO-EA to determine if there is a synergistic effect on GLUT4 translocation. Also, cells will be treated with the AMPK activator, 5-aminoimidazole-4-carboxamide ribonucleoside (AICAR, 1 mM, 40 minutes), as a positive control. We will use a colorimetric assay to quantitatively measure the levels of cell surface GLUT4 in 3T3-L1 adipocytes and L6GLUT4myc myotubes^37. […] GLUT4 translocation will be detected via immunofluorescence. Subcellular protein fractionation will be conducted to detect GLUT4 in the sarcolemma for myotubes and plasma membrane for adipocytes and GLUT2 in the plasma membrane of hepatocytes via Western blotting. GLUT2 will be measured in hepatocytes because GLUT2 is the most abundant glucose transporter in hepatocytes^38. To measure glucose uptake, a non-radioactive, plate-based bioluminescent assay (Glucose Uptake-Glo, Promega) will be performed. Using Glucose Uptake-Glo, insulin induces glucose uptake in L6GLUT4my myotubes. Phosphorylation of AMPK at Thr^172 and phosphorylation of ACC at Ser^79 indicates activation of the AMPK pathway. Thus, phosphorylation of AMPK Thr^172 and ACC Ser^79 will be shown through Western blotting. […]

[9] = system: GLUT4; experiment: GLUT4myc translocation by immunofluorescence in L6-GLUT4myc myotubes; type: cell-based, rat; conditions: CDDO-EA 500 nM 1 h; insulin 100 nM 15 min
Protocol: Immunofluorescence and confocal microscopy were employed to visualize the localization of c-myc epitope-tagged GLUT4 in L6-GLUT4myc myotubes treated with CDDO-EA for 1 h. L6-GLUT4myc myotubes were also treated with insulin alone for 15 min as a positive control.
To examine the properties of CDDO-EA in regulating glucose metabolism in the skeletal muscle, the present study examined whether CDDO-EA induces translocation of GLUT4 to the cell surface (FIG. 16A). Immunofluorescence and confocal microscopy were used to visualize the localization of c-myc epitope-tagged GLUT4 in L6-GLUT4myc cells.
Immunofluorescence microscopy: L6-GLUT4myc myoblasts (4×10^4 cells/ml, 0.2 ml/well) were plated onto Nunc Lab-TekII 8-chamber slides (Thermo Fisher Scientific) and differentiated for 7 days. Myotubes were pre-treated with CDDO-EA 500 nM for 1 h followed by LPS 100 ng/ml (E. coli O111: B4, Sigma Aldrich) treatment for 1 h. After treatment, myotubes were fixed, permeabilized, and stained with anti-NF-κB p65 primary antibody (cat #sc-372, 1:100, Santa Cruz Biotechnology) and a goat anti-rabbit secondary antibody conjugated with Alexa Fluor® 488 (cat #A32731, 1:500, Invitrogen) as previously described. For GLUT4myc cell membrane staining, myotubes were pre-treated with CDDO-EA 500 nM for 1 h followed by LPS 100 ng/ml (E. coli 0111: B4, Sigma Aldrich) treatment for 1 h. Insulin 100 nM (cat #19278, Sigma Aldrich) treatment was for 15 min. After CDDO-EA, LPS, and insulin treatment, myotubes were fixed without permeabilization and stained with anti-c-myc primary antibody (cat #C3956, 1:100, Sigma Aldrich) and a goat anti-rabbit secondary antibody conjugated with Alexa Fluor® 488 (cat #A32731, 1:500, Invitrogen) as previously described.

[10] = RAW264.7, 500 nM CDDO-EA batch 1 hour then 100 ng/ml LPS 6 hr
[11] = RAW264.7, 500 nM CDDO-EA batch alone, no LPS
[12] = 500 nM CDDO-EA batch 1 hour then 100 ng/ml LPS 6 hr
[13] = 500 nM CDDO-EA batch alone, no LPS
[14] = Table 5, 500 nM CDDO-EA batch 1 hour then 100 ng/ml LPS 6 hr
[15] = Table 5, 500 nM CDDO-EA batch alone, no LPS

Compound	modulation of TGF-β/Smad signaling [2]	induction of heme-oxygenase-1 and Nrf2/ARE signaling [3]	MCP-1 level (ELISA), individual values [5, 10]	MCP-1 level (ELISA), individual values [5, 11]	MCP-1 level (ELISA), average [5, 12]	MCP-1 level (ELISA), average [5, 13]	MCP-1 level (ELISA), mean of four values [5, 14]	MCP-1 level (ELISA), mean of four values [5, 15]	other results
CC1(C)CC[C@]2(C(=O)NCC(F)(F)F)CC[C@]3(C)[C@H](C(=O)C=C4[C@@]5(C)C=C(C#N)C(=O)C(C)(C)[C@@H]5CC[C@]43C)[C@@H]2C1 [CDDO-TFEA]	–	–	–	–	–	–	–	–	muscle strength and balance, survival ([1]; N171-82Q mice): improved muscle strength and balance and increased survival; accumulation in the skeletal muscle ([1]; Stack et al. (2010)): accumulated in the skeletal muscle; oxidative stress in skeletal muscle ([1]; Stack et al. (2010)): oxidative stress in skeletal muscle was reduced
CC1(C)CC[C@]2(C(=O)n3ccnc3)CC[C@]3(C)[C@H](C(=O)C=C4[C@@]5(C)C=C(C#N)C(=O)C(C)(C)[C@@H]5CC[C@]43C)[C@@H]2C1 [CDDO-Im]	ability to modulate transforming growth factor-β (TGF-β)/Smad signaling	potent inducers of heme-oxygenase-1 and Nrf2/ARE signaling	–	–	–	–	–	–	energy expenditure (EE) [4]: increases energy expenditure (EE) in mice fed a HFD
CCNC(=O)[C@]12CCC(C)(C)C[C@H]1C1C(=O)C=C3[C@@]4(C)C=C(C#N)C(=O)C(C)(C)[C@@H]4CC[C@@]3(C)[C@]1(C)CC2 (stereo partly drawn) [CDDO-EA #1, (4aS,6aR,6bS,8aR,12aS,14bS)-11-cyano-N-ethyl-2,2,6a,6b,9,9,12a-heptamethyl-10,14-dioxo-1,3,4,5,6,6a,6b,7,8,8a,9,10,12a, 14,14a, 14b-hexadecahydropicene-4a (2H)-carboxamide]	–	–	30687 and 31996 and 20309 and 17055	717 and 655 and 740 and 870	31341	686	25012	746	MCP-1 production ([5]; listed as Batch #1 CDDO-EA): 31300 pg/mL; fold difference in the decrease of MCP-1 production ([5]; listed as Batch #1 CDDO-EA): about 3.6 fold
CCNC(=O)[C@]12CCC(C)(C)C[C@H]1C1C(=O)C=C3[C@@]4(C)C=C(C#N)C(=O)C(C)(C)[C@@H]4CC[C@@]3(C)[C@]1(C)CC2 (stereo partly drawn) [CDDO-EA #2, (4aS,6aR,6bS,8aR,12aS,14bS)-11-cyano-N-ethyl-2,2,6a,6b,9,9,12a-heptamethyl-10,14-dioxo-1,3,4,5,6,6a,6b, 7,8,8a,9,10,12a, 14,14a, 14b-hexadecahydropicene-4a (2H)-carboxamide]	–	–	23503 and 25793 and 11890 and 14316	481 and 497 and 314 and 587	24648	489	18875	470	MCP-1 production ([5]; listed as Batch #2 CDDO-EA): 24600 pg/mL; LPS-induced production of MCP-1 ([5]; RAW264.7, 500 nM 1 hour then 100 ng/ml LPS 6 hr): blocked the LPS-induced production of MCP-1; fold difference in the decrease of MCP-1 production ([5]; listed as Batch #2 CDDO-EA): ~4.6 fold
COC(=O)[C@]12CCC(C)(C)C[C@H]1C1C(=O)C=C3[C@@]4(C)C=C(C#N)C(=O)C(C)(C)[C@@H]4CC[C@@]3(C)[C@]1(C)CC2 (stereo partly drawn) [CDDO-Me, methyl (4aS,6aR,6bS,8aR,12aS,14bS)-11-cyano-2,2,6a,6b,9,9,12a-heptamethyl-10,14-dioxo-1,3,4,5,6,6a,6b,7,8,8a,9,10,12a, 14,14a, 14b-hexadecahydropicene-4a (2H)-carboxylate]	ability to modulate transforming growth factor-β (TGF-β)/Smad signaling	potent inducers of heme-oxygenase-1 and Nrf2/ARE signaling	–	–	–	–	–	–	phosphorylation of IκB-α [6]: increase in phosphorylation of IκB-α; AMPK signaling [7]: activated AMPK signaling in isolated mouse hepatocytes and C2C12 muscle cells
Insulin: positive control for GLUT4myc translocation, 100 nM for 15 min [reference compound]	–	–	–	–	–	–	–	–	GLUT4 translocation to the cell surface (colorimetry assay) [8]: induce GLUT4 translocation to the cell surface; GLUT4myc translocation to the cell surface [9]: induced GLUT4myc translocation into the cell membrane
